From patent US8124361B2, “Methods of screening for sweet taste modulators” (Givaudan SA, priority 2006, dated 2012)

Columns and labels:
[1] = test system: sweet sensitive panelists; test: Paired comparison of sweetness versus sucrose, sensory panel; type: in vivo, human
[2] = target: T1, transmembrane domains of TAS1R (Homo sapiens, UniProt Q7RTX0+Q8TE23, C757R); test: Identification of candidate sweetness enhancers that bind to the transmembrane domains; type: binding; conditions: identified by the applicants as candidate sweetness enhancers
T1 sequence (Q8TE23 20-839): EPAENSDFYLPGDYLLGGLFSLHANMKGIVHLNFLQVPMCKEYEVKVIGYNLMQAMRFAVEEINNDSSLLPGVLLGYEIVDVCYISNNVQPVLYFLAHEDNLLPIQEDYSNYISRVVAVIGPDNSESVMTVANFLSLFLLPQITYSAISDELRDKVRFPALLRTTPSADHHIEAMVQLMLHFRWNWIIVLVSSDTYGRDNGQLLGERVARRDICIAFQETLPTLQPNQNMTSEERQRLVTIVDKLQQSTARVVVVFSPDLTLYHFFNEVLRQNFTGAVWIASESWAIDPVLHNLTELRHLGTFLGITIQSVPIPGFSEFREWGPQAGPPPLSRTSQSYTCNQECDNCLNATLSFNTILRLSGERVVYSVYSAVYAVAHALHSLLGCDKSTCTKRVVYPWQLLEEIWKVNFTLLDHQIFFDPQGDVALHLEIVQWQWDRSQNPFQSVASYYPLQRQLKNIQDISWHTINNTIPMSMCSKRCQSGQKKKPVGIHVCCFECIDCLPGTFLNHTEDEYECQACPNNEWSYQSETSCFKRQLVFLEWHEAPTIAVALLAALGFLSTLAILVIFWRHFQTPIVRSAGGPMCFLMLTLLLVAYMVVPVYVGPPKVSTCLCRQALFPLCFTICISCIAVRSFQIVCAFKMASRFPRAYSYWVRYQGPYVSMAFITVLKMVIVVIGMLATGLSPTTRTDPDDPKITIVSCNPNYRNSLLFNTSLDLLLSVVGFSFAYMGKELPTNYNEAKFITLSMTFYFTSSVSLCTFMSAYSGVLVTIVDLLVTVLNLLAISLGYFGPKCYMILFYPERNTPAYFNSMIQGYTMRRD
T1 sequence (Q7RTX0 21-852 C757R): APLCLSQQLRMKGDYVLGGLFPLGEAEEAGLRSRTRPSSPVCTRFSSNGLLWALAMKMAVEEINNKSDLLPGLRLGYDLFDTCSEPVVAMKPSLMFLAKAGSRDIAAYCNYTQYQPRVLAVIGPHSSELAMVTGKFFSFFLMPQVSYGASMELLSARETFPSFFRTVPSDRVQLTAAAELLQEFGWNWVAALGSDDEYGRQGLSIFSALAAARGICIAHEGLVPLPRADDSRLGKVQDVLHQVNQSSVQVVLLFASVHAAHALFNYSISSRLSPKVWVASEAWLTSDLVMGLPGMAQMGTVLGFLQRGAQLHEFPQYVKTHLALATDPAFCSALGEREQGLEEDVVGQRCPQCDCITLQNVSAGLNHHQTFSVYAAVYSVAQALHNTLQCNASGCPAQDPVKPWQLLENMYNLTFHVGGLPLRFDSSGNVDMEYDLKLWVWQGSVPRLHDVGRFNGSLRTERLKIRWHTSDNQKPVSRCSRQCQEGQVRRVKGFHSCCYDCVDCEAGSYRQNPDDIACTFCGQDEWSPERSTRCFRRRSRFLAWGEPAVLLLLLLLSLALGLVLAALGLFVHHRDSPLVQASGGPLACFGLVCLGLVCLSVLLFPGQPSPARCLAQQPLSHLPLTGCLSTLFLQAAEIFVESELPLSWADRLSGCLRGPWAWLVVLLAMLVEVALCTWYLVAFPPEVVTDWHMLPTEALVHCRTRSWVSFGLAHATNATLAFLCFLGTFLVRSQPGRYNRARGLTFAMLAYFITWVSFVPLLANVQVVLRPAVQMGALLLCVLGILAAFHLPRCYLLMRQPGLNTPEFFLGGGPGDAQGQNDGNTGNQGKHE

[3] = test system: sweet sensitive panelists; test: Ranking test of sweetness isointensity (R-index), sensory panel; type: in vivo, human; conditions: for sweetness equivalent to sucrose (isointensity): by interpolation; for sample sweetness (0.5% sucrose) / sample sweetness (p-ethoxybenzaldehyde, 75 ppm): nose clips
Description: (§1) The sensory evaluation was conducted using a ranking method. Samples at ambient temperature were randomly presented in 15 ml blind aliquots (unidentifiable by panelists). Panels consisted of 10 sweet sensitive subjects and samples were presented in 3 replications over 1 session. After tasting each sample, the mouth was rinsed thoroughly with water at ambient temperature prior to tasting the next sample. […] They were asked to rank the samples from low to high with respect to perceived sweet taste.
as §1, with “taste. […] From ranking-style sensory tests, a matrix of responses (see table X below) is constructed such that each cell contains the number of times a given sample was ranked at a particular location.” for “taste.”
Essentially, the R-index is a measure of difference between two samples. The R-index has a chance level of detection of 50%. […] The critical value is the statistically relevant value that the derived R-index must deviate from (i.e greater or less than) in order to be considered significant.

C[C@@H]1O[C@@H](O[C@H]2[C@H](Oc3cc(O)c(C(=O)CCc4ccc(O)cc4)c(O)c3)O[C@H](CO)[C@@H](O)[C@@H]2O)[C@H](O)[C@H](O)[C@H]1O [NarDHC, naringin dihydrochalcone]
Result of comparison ([1]; 45 ppm NarDHC in water vs 0% sucrose): weakly sweeter | Result of comparison ([1]; 45 ppm NarDHC in water vs 0.5% sucrose): isosweet | Result of comparison ([1]; 45 ppm NarDHC in water vs 1% sucrose): less sweet | Result of comparison ([1]; 50 ppm NarDHC in water vs 0.5% sucrose): notably sweeter | Result of comparison ([1]; 50 ppm NarDHC in water vs 1% sucrose): less sweet | Result of comparison ([1]; 55 ppm NarDHC in water vs 0.5% sucrose): notably sweeter | Result of comparison ([1]; 55 ppm NarDHC in water vs 1% sucrose): isosweet | Result of comparison ([1]; 60 ppm NarDHC in water vs 1% sucrose): notably sweeter | Result of comparison ([1]; 60 ppm NarDHC in water vs 1.5% sucrose): significantly less sweet | binding to the transmembrane domains of TAS1R [2]: bind to the transmembrane domains of TAS1R | sweetness equivalent to sucrose (isointensity) ([3]; 60 ppm NarDHC in water): about 1.25 % sucrose

C[C@H](CC[C@@H](O[C@@H]1O[C@H](CO[C@@H]2O[C@H](CO)[C@@H](O)[C@H](O)[C@H]2O)[C@@H](O)[C@H](O)[C@H]1O[C@@H]1O[C@H](CO)[C@@H](O)[C@H](O)[C@H]1O)C(C)(C)O)[C@H]1CC[C@@]2(C)[C@@H]3CC=C4[C@@H](CC[C@H](O[C@@H]5O[C@H](CO[C@@H]6O[C@H](CO)[C@@H](O)[C@H](O)[C@H]6O)[C@@H](O)[C@H](O)[C@H]5O)C4(C)C)[C@]3(C)[C@H](O)C[C@]12C [mogroside V]
binding to the transmembrane domains of TAS1R [2]: bind to the transmembrane domains of TAS1R

CCOc1ccc(C=O)cc1 [p-ethoxybenzaldehyde]
sample sweetness (0.5% sucrose) ([3]; 0.5% sucrose sample ranked against 100 ppm p-ethoxybenzaldehyde in water): isosweet | sample sweetness (0.5% sucrose) ([3]; 0.5% sucrose sample ranked against 150 ppm p-ethoxybenzaldehyde in water): less sweet | sweetness isointensity to sucrose ([3]; 7% sucrose and 75 ppm p-ethoxybenzaldehyde): 8 % sucrose | sample sweetness (p-ethoxybenzaldehyde, 75 ppm) ([3]; 75 ppm in water vs 0.5% sucrose): less sweet | sample sweetness (p-ethoxybenzaldehyde, 75 ppm) ([3]; 75 ppm in water vs 1% sucrose): less sweet | p-ethoxybenzaldehyde sample sweetness ([3]; 75 ppm p-ethoxybenzaldehyde in 7% sucrose vs 7% sucrose): sweeter | p-ethoxybenzaldehyde sample sweetness ([3]; 75 ppm p-ethoxybenzaldehyde in 7% sucrose vs 8% sucrose): isosweet | p-ethoxybenzaldehyde sample sweetness ([3]; 75 ppm p-ethoxybenzaldehyde in 7% sucrose vs 9% sucrose): less sweet | p-ethoxybenzaldehyde sample sweetness ([3]; 75 ppm p-ethoxybenzaldehyde in 7% sucrose vs 10% sucrose): less sweet | p-ethoxybenzaldehyde sample sweetness ([3]; 75 ppm p-ethoxybenzaldehyde in 7% sucrose vs 11% sucrose): less sweet | sweetness equivalent to sucrose (isointensity) ([3]; 75 ppm p-ethoxybenzaldehyde in water, below the detection threshold for sweet): 0.25 % sucrose | sample sweetness (p-ethoxybenzaldehyde, 100 ppm) ([3]; 100 ppm in water vs 150 ppm cyclamate): isosweet | sample sweetness (p-ethoxybenzaldehyde, 100 ppm) ([3]; 100 ppm in water vs 200 ppm cyclamate): less sweet | sample sweetness (p-ethoxybenzaldehyde, 100 ppm) ([3]; 100 ppm in water vs 250 ppm cyclamate): less sweet | cyclamate equivalent in sweetness added ([3]; 100 ppm p-ethoxybenzaldehyde added to 1700 ppm cyclamate): 400 ppm cyclamate | p-ethoxybenzaldehyde sample sweetness ([3]; 100 ppm p-ethoxybenzaldehyde in 1700 ppm cyclamate vs 1700 ppm cyclamate): sweeter | p-ethoxybenzaldehyde sample sweetness ([3]; 100 ppm p-ethoxybenzaldehyde in 1700 ppm cyclamate vs 1900 ppm cyclamate): sweeter | p-ethoxybenzaldehyde sample sweetness ([3]; 100 ppm p-ethoxybenzaldehyde in 1700 ppm cyclamate vs 2100 ppm cyclamate): isosweet | p-ethoxybenzaldehyde sample sweetness ([3]; 100 ppm p-ethoxybenzaldehyde in 1700 ppm cyclamate vs 2300 ppm cyclamate): less sweet | p-ethoxybenzaldehyde sample sweetness ([3]; 100 ppm p-ethoxybenzaldehyde in 1700 ppm cyclamate vs 2500 ppm cyclamate): less sweet | sweetness A versus B ([3]; 600 ppm (A) vs 700 ppm (B) p-ethoxybenzaldehyde in water): less sweet than | sweetness A versus B ([3]; 700 ppm (A) vs 800 ppm (B) p-ethoxybenzaldehyde in water): less sweet than | sweetness A versus B ([3]; 800 ppm (A) vs 900 ppm (B) p-ethoxybenzaldehyde in water): less sweet than | sweetness A versus B ([3]; 900 ppm (A) vs 1000 ppm (B) p-ethoxybenzaldehyde in water): less sweet than | cyclamate isointensity ([3]; 1700 ppm cyclamate+100 ppm p-ethoxybenzaldehyde): 2100 ppm cyclamate

C=C1C[C@@]23CC[C@H]4[C@@](C)(CCC[C@@]4(C)C(=O)O[C@@H]4O[C@H](CO)[C@@H](O)[C@H](O)[C@H]4O)[C@@H]2CC[C@]1(O[C@@H]1O[C@H](CO)[C@@H](O)[C@H](O[C@@H]2O[C@H](CO)[C@@H](O)[C@H](O)[C@H]2O)[C@H]1O[C@@H]1O[C@H](CO)[C@@H](O)[C@H](O)[C@H]1O)C3 [rebaudioside A]
binding to the transmembrane domains of TAS1R [2]: bind to the transmembrane domains of TAS1R

C=C1C[C@@]23CC[C@H]4[C@@](C)(CCC[C@@]4(C)C(=O)O[C@@H]4O[C@H](CO)[C@@H](O)[C@H](O)[C@H]4O)[C@@H]2CC[C@]1(O[C@@H]1O[C@H](CO)[C@@H](O)[C@H](O)[C@H]1O)C3 [rubusoside]
binding to the transmembrane domains of TAS1R [2]: bind to the transmembrane domains of TAS1R

C=C1C[C@@]23CC[C@H]4[C@@](C)(CCC[C@@]4(C)C(=O)O[C@@H]4O[C@H](CO)[C@@H](O)[C@H](O)[C@H]4O)[C@@H]2CC[C@]1(O[C@@H]1O[C@H](CO)[C@@H](O)[C@H](O)[C@H]1O[C@@H]1O[C@H](CO)[C@@H](O)[C@H](O)[C@H]1O)C3 [stevioside]
binding to the transmembrane domains of TAS1R [2]: bind to the transmembrane domains of TAS1R
